Read-outs that look alike come from different tables or passages of the source.
What was measured:
[1] = system: P. falciparum TM4/8.2 (NCSI); experiment: microbe, parasite or virus in culture; type: cell-based; details: Plasmodium falciparum, read-out: IC50 P. falciparum TM4/8.2 (NCSI)
[2] = system: P. falciparum K1CB1 (NRNI); experiment: microbe, parasite or virus in culture; type: cell-based; details: Plasmodium falciparum, read-out: IC50 P. falciparum K1CB1 (NRNI)
[3] = system: P. falciparum CSL-2 (NRNL); experiment: microbe, parasite or virus in culture; type: cell-based; details: Plasmodium falciparum, read-out: IC50 P. falciparum CSL-2 (NRNL)
[4] = system: surrogate cells (BL21(DE3) E. coli) expressing wild-type PfDHFR; experiment: Bacterial surrogate growth, cells expressing wild-type PfDHFR; type: cell-based, Escherichia coli; details: 100 µM BT1, M9 minimal medium, trimethoprim
P. falciparum W2 (IRNI) = experiment: microbe, parasite or virus in culture; type: cell-based; details: Plasmodium falciparum, W2, read-out: IC50 P. falciparum W2 (IRNI)
[5] = system: surrogate cells (BL21(DE3) E. coli) expressing N51I+C59R+S108N+I164L quadruple mutant PfDHFR; experiment: Bacterial surrogate growth, cells expressing quadruple mutant PfDHFR; type: cell-based, Escherichia coli; details: 100 µM BT1, M9 minimal medium, trimethoprim
hDHFR = molecular target: T1, hDHFR (Homo sapiens, UniProt P00374); details: read-out: Ki hDHFR
T1 sequence (P00374 1-187): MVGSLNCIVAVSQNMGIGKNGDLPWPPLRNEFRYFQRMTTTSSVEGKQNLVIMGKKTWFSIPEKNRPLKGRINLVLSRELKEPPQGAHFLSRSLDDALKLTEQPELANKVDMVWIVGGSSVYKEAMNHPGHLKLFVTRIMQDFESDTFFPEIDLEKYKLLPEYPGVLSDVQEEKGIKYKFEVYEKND

[6] = system: wild-type and Pyr-resistant mutant P. falciparum; experiment: microbe, parasite or virus in culture; type: cell-based; details: Plasmodium falciparum, read-out: IC50 against both wild-type and Pyr-resistant mutant P. falciparum
[7] = system: P. falciparum V1/S (IRNL); experiment: microbe, parasite or virus in culture; type: cell-based; details: Plasmodium falciparum, read-out: IC50 P. falciparum V1/S (IRNL)
in vitro = details: African green monkey
Vero cells = system: Vero cells; design: method as in PMID 11881993; details: IC50 against Vero cells; read-out: cytotoxicity Vero cells; cited from earlier work
[8] = system: P. falciparum V1/S (IRNL); details: ± SD; cited from earlier work

Row | Compound | IC50 [1] | IC50 [2] | IC50 [3] | growth inhibition of surrogate cells [4] | IC50 (P. falciparum W2 (IRNI)) | growth inhibition of surrogate cells [5] | Ki (hDHFR) | IC50 [6] | IC50 [7] | IC50 (in vitro) | IC50 (Vero cells) | IC50 [8]
1 | CCc1nc(N)nc(N)c1OCCCOc1cccc(-c2c(N)nc(N)nc2CC)c1 [BT1] | 290 ± 50 nM | 220 ± 60 nM | 510 ± 80 nM | completely inhibitory | 250 ± 50 nM | completely inhibitory | 22.5 ± 2.9 nM | < 5000 nM | 1720 ± 690 nM | 5940 ± 650 nM | – | –
2 | CCc1nc(N)nc(N)c1OCCCOc1ccc(-c2c(N)nc(N)nc2CC)cc1 [BT2S] | 63 ± 14 nM | 1840 ± 310 nM | 3950 ± 360 nM | – | 2350 ± 100 nM | – | 20.2 ± 3.3 nM | – | 4400 ± 710 nM | 6300 ± 1500 nM | – | –
3 | CCc1nc(N)nc(N)c1OCCCOc1ccc(-c2c(N)nc(N)nc2CC)cc1 [BT2] | – | – | – | – | – | – | 18.1 ± 1.3 nM | – | – | – | – | –
4 | CCc1nc(N)nc(N)c1-c1ccc(OCCCOc2ccc(-c3c(N)nc(N)nc3CC)cc2)cc1 [BT3S] | 35 ± 3.3 nM | 330 ± 38 nM | 310 ± 20 nM | – | 300 ± 30 nM | – | 33.6 ± 10.6 nM | – | 330 ± 23 nM | 2530 ± 440 nM | – | –
5 | CCc1nc(N)nc(N)c1-c1cccc(Cl)c1 [P30] | – | – | – | – | – | – | – | – | – | – | 7000 nM | –
6 | Cc1nc(N)nc(N)c1OCCCOc1cc(Cl)c(Cl)cc1Cl [P65, reference compound] | – | 1920 ± 530 nM | 4400 ± 2100 nM | – | 2270 ± 650 nM | – | 47.6 ± 4 nM | – | – | 4030 ± 410 nM | – | –
7 | CCc1nc(N)nc(N)c1-c1ccc(Cl)cc1 [Pyr, pyrimethamine, reference compound] | – | – | – | – | – | – | – | – | – | > 100000 nM | – | > 100000 nM

Source: paper PMC6295868, “Hybrid Inhibitors of Malarial Dihydrofolate Reductase with Dual Binding Modes That Can Forestall Resistance” (ACS Medicinal Chemistry Letters, 2018)
